Results: patent US20140242200A1, “WATER-SOLUBLE EXTRACTS OF ARTEMISIA DRACUNCULUS (TARRAGON) FOR IMPROVEMENT OF GLUCOSE METABOLISM” (Finzelberg GmbH & Co. KG, priority 2008, published 2014)

Experiments:
[1] = system: Male non-fasted Wistar rats; experiment: Glucose challenge test (i.p. glucose) in rats; format: in vivo; settings: oral treatment 30 min before i.p. glucose; extracts 6 mg/kg; blood samples 0-120 min; one-way ANOVA, Student-Newman-Keuls
Protocol: (§1) A common way of testing for an effect of extracts or new chemical entities on blood glucose levels is the glucose challenge test (Verspohl, E. J.: Recommended testing in diabetes research. Planta Med 68 (7): 581-90, 2002) in which rats are given the extract, control, or a known antidiabetic substance with (challenge) and without (basal) an intraperitoneal (i.p.) dose of glucose. The extracts are given orally 30 min. before the glucose challenge. Blood samples are taken sublingual at time points 0, 15, 30, 60, and 120 minutes for the glucose challenge or 0, 30, 60, 120, and 180 minutes for basal blood glucose levels. This sampling scheme ensures to monitor both effects of extracts on basal blood glucose levels over a longer time period and the blood glucose levels after glucose challenge closely enough. […]
(§2) Blood was drawn at the appropriate time points from the sublingual vein after a short halothane anesthesia and stored at 4° C. with addition of heparin. […] The supernatant plasma was taken and analyzed using an autoanalyzer (Merck, Darmstadt). […]
(§3) Both percent and AUC data were analyzed by one-way ANOVA and Student-Newman-Keuls Multiple Comparison Test using Graphpad 4.0 Software, San Diego, USA. The AUC (area under the curve) was calculated using the trapezoidal rule without extensions beyond the last time point measured.

[2] = system: Male non-fasted Wistar rats; experiment: Basal blood glucose levels in rats (no glucose challenge); format: in vivo; settings: oral treatment, extracts 6 mg/kg, blood samples 0-180 min, one-way ANOVA, Student-Newman-Keuls
Protocol: as §1, §2, §3

Row | SMILES | effect on lowering the blood glucose levels following the i.p. glucose challenge [1] | effect on basal blood glucose levels [2]
1 | COc1ccc(Cl)cc1C(=O)NCCc1ccc(S(=O)(=O)NC(=O)NC2CCCCC2)cc1 [glyburide] | significant effect | significant effect
2 | N[C@@H](CC(=O)N1CCn2c(nnc2C(F)(F)F)C1)Cc1cc(F)c(F)cc1F [sitagliptin] | significant effect | significant effect
